Laboratory results as given in patent US20150105252A1, “SUBSTITUTED PYRAZOLES AS HERBICIDES” (E I DU PONT DE NEMOURS AND COMPANY, priority 2013, published 2015).

Assays:
[1] = system: crabgrass, large; assay: Test C preemergence; format: in vivo, Digitaria sanguinalis
Outline: (§1)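 Pre- and postemergence greenhouse screen; vehicle was a non-phytotoxic solvent mix with surfactant. Preemergence: treatment applied right after sowing into loam and sand. Postemergence: treated at 1–4 leaves. Visual rating at 13–15 days, 100 = complete control.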

[2] = system: crabgrass, large; assay: Test A preemergence; format: in vivo, Digitaria sanguinalis; conditions: preemergence; for Crabgrass, Large plant response rating (0 to 100 scale): 125 g ai/ha, visual injury approx. 10 days after treatment; for Crabgrass, Large plant response rating: 500 g ai/ha, visual injury after approx. 10 days, 0 to 100 scale (0 no effect, 100 complete control)
Outline: (§2)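 Both timings tested concurrently in loam/sand soil: preemergence by directed soil spray, postemergence on plants of 2–10 cm at the one- to two-leaf stage. Greenhouse holding period was approximately 10 days before visual injury assessment (0–100, 0 = no effect).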

[3] = system: barnyardgrass; assay: Test C preemergence; format: in vivo, Echinochloa crus-galli
Outline: as §1

[4] = system: ducksalad; assay: Test B flood; format: in vivo, Heteranthera limosa; conditions: 250 g ai/ha, visual rating on 0 to 100 scale (0 no effect, 100 complete control), 13 to 15 days
Outline: (§3)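 Visual ratings (0 = no effect, 100 = complete control) versus untreated controls were taken 13–15 days after treatment of greenhouse plants. Treatment was added to paddy water held at 3 cm depth on 2-leaf-stage seedlings.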

[5] = system: morningglory; assay: Test A postemergence; format: in vivo, Ipomoea spp.
Outline: as §2

[6] = system: velvetleaf; assay: Test C preemergence; format: in vivo, Abutilon theophrasti
Outline: as §1

[7] = system: morningglory; assay: Test C preemergence; format: in vivo, Ipomoea coccinea
Outline: as §1

[8] = system: nutsedge, yellow; assay: Test C preemergence; format: in vivo, Cyperus esculentus
Outline: as §1

[9] = system: rice; assay: Test B flood; format: in vivo, Oryza sativa; conditions: 250 g ai/ha, visual rating on 0 to 100 scale (0 no effect, 100 complete control), 13 to 15 days
Outline: as §3

[10] = system: oilseed rape; assay: Test C preemergence; format: in vivo, Brassica napus
Text: Seeds of plant species selected from blackgrass (Alopecurus myosuroides), ryegrass, Italian (Italian ryegrass, Lolium multiflorum), wheat (winter wheat, Triticum aestivum), galium (catchweed bedstraw, Galium aparine), corn (Zea mays), crabgrass, large (large crabgrass, Digitaria sanguinalis), foxtail, giant (giant foxtail, Setaria faberii), johnsongrass (Sorghum halepense), lambsquarters (Chenopodium album), morningglory (Ipomoea coccinea), nutsedge, yellow (yellow nutsedge, Cyperus esculentus), pigweed (redroot pigweed, Amaranthus retroflexus), ragweed (common ragweed, Ambrosia elation), soybean (Glycine max), barnyardgrass (Echinochloa crus-galli), oilseed rape (Brassica napus), waterhemp (common waterhemp, Amaranthus rudis), oat, wild (wild oat, Avena fatua), kochia (Kochia scoparia), Surinam grass (Brachiaria decumbens), foxtail, green (green foxtail, Setaria viridis), goosegrass (Eleusine indica), bromegrass, downy (downy bromegrass, Bromus tectorum), nightshade (eastern black nightshade, Solanum ptycanthum), cocklebur (common cocklebur, Xanthium strumarium), cupgrass, woolly (woolly cupgrass, Eriochloa villosa), bermudagrass (Cynodon dactylon), sunflower, (common oilseed sunflower, Helianthus annuus), Russian thistle (Salsola kali), and velvetleaf (Abutilon theophrasti) were planted into a blend of loam soil and sand and treated preemergence with test chemicals formulated in a non-phytotoxic solvent mixture which included a surfactant.
At the same time, plants selected from these crop and weed species and also chickweed (common chickweed, Stellaria media), canarygrass (littleseed canarygrass, Phalaris minor), and deadnettle (henbit deadnettle, Lamium amplexicaule), were planted in pots containing Redi-Earth® planting medium (Scotts Company, 14111 Scottslawn Road, Marysville, Ohio 43041) comprising spaghnum peat moss, vermiculite, wetting agent and starter nutrients and treated with postemergence applications of test chemicals formulated in the same manner. Plants ranged in height from 2 to 18 cm (1- to 4-leaf stage) for postemergence treatments. Treated plants and controls were maintained in a greenhouse for 13 to 15 days, after which time all species were compared to controls and visually evaluated. Plant response ratings, summarized in Table C, are based on a scale of 0 to 100 where 0 is no effect and 100 is complete control. A dash (-) response means no test result.

[11] = system: barnyardgrass; assay: Test A postemergence; format: in vivo, Echinochloa crus-galli
Outline: as §2

[12] = preemergence, 31 g ai/ha, visual rating, scale 0 to 100 (0 no effect, 100 complete control), 13 to 15 days
[13] = preemergence, 62 g ai/ha, scale 0 to 100 (0 no effect, 100 complete control), 13 to 15 days
[14] = preemergence, 125 g ai/ha, 13 to 15 days, scale 0 to 100, 0 = no effect, 100 = complete control
[15] = preemergence, 250 g ai/ha, scale 0 to 100, 0 is no effect, 100 is complete control
[16] = Postemergence, 500 g ai/ha, 0 to 100 scale (0 no effect, 100 complete control)
[17] = postemergence, 125 g ai/ha, about 10 days, visual rating on 0 to 100 scale (0 no effect, 100 complete control)
[18] = Preemergence, 16 g ai/ha, scale 0 to 100

SMILES | Crabgrass, Large plant response rating [1, 12] | Crabgrass, Large plant response rating [1, 13] | Plant response rating, Crabgrass, Large [1, 14] | Crabgrass, Large plant response rating (0 to 100 scale) [2] | Crabgrass, Large plant response rating [2] | Barnyardgrass plant response rating [3, 12] | Barnyardgrass plant response rating [3, 13] | Plant response rating, Barnyardgrass [3, 14] | Plant response rating, Ducksalad [4] | Morningglory plant response rating [5, 16] | Velvetleaf plant response rating [6, 12] | Velvetleaf plant response rating [6, 13] | Plant response rating, Velvetleaf [6, 14] | Morningglory plant response rating [7, 12] | Morningglory plant response rating [7, 13] | Plant response rating, Morningglory [7, 14] | Nutsedge, Yellow plant response rating [8, 12] | Nutsedge, Yellow plant response rating [8, 13] | Plant response rating, Nutsedge, Yellow [8, 14] | Plant response rating, Rice [9] | further results
O=C(NCC(F)(F)F)c1cc(CCF)n(Cc2ccnc(C(F)(F)F)c2)n1 [Compound 175] | 100 | 100 | 100 | 100 | 100 | 80 | 80 | 100 | 100 | 90 | 55 | 98 | 100 | 95 | 100 | 100 | 10 | 55 | 70 | 25 | Crabgrass, Large plant response rating [1, 15]: 100; Barnyardgrass plant response rating [3, 15]: 100; Morningglory plant response rating [5, 17]: 80; Velvetleaf plant response rating [6, 15]: 100; Morningglory plant response rating [7, 15]: 100; Nutsedge, Yellow plant response rating [8, 15]: 98; Oilseed Rape plant response rating [10, 12]: 98; Oilseed Rape plant response rating [10, 13]: 100; Plant response rating, Oilseed Rape [10, 14]: 100; Oilseed Rape plant response rating [10, 15]: 100; Barnyardgrass plant response rating [11, 16]: 90; Barnyardgrass plant response rating [11, 17]: 70
O=C(NC1CC1)c1cc(CCF)n(Cc2ccnc(C(F)(F)F)c2)n1 [Compound 176] | 98 | 95 | 100 | 100 | 100 | 25 | 100 | 100 | 100 | 90 | 30 | 75 | 90 | 65 | 98 | 98 | 5 | 5 | 75 | 0 | Crabgrass, Large plant response rating [1, 15]: 100; Barnyardgrass plant response rating [3, 15]: 100; Morningglory plant response rating [5, 17]: 90; Velvetleaf plant response rating [6, 15]: 100; Morningglory plant response rating [7, 15]: 100; Nutsedge, Yellow plant response rating [8, 15]: 85; Oilseed Rape plant response rating [10, 12]: 90; Oilseed Rape plant response rating [10, 13]: 90; Plant response rating, Oilseed Rape [10, 14]: 95; Oilseed Rape plant response rating [10, 15]: 100; Barnyardgrass plant response rating [11, 16]: 90; Barnyardgrass plant response rating [11, 17]: 60
CCNC(=O)c1cc(CCF)n(Cc2ccnc(C(F)(F)F)c2)n1 [Compound 178] | 100 | 95 | 100 | 100 | 100 | 10 | 60 | 100 | 95 | 100 | 15 | 55 | 70 | 35 | 95 | 100 | 5 | 15 | 35 | 0 | Plant response rating, Crabgrass, Large [1, 18]: 30; Plant response rating, Barnyardgrass [3, 18]: 0; Morningglory plant response rating [5, 17]: 70; Plant response rating, Velvetleaf [6, 18]: 10; Plant response rating, Morningglory [7, 18]: 15; Plant response rating, Nutsedge, Yellow [8, 18]: 0; Plant response rating, Oilseed Rape [10, 18]: 50; Oilseed Rape plant response rating [10, 12]: 70; Oilseed Rape plant response rating [10, 13]: 80; Plant response rating, Oilseed Rape [10, 14]: 98; Barnyardgrass plant response rating [11, 16]: 80; Barnyardgrass plant response rating [11, 17]: 70
CCCc1cc(C(=O)NOC(C)C)nn1Cc1cc(C(F)(F)F)nn1C [Compound 203] | 80 | 95 | 100 | 100 | 100 | 35 | 98 | 100 | 95 | 90 | 30 | 98 | 100 | 30 | 95 | 85 | 5 | 35 | 85 | 0 | Crabgrass, Large plant response rating [1, 15]: 100; Barnyardgrass plant response rating [3, 15]: 100; Morningglory plant response rating ([5]; Postemergence, 125 g ai/ha, 0 to 100 scale, 0 no effect, 100 complete control): 50; Velvetleaf plant response rating [6, 15]: 100; Morningglory plant response rating [7, 15]: 100; Nutsedge, Yellow plant response rating [8, 15]: 90; Oilseed Rape plant response rating [10, 12]: 50; Oilseed Rape plant response rating [10, 13]: 100; Plant response rating, Oilseed Rape [10, 14]: 100; Oilseed Rape plant response rating [10, 15]: 100; Barnyardgrass plant response rating [11, 16]: 80; Barnyardgrass plant response rating [11, 17]: 40
